Reference: US6977254B2, “Hydroxy cyclohexenyl phenyl carboxamides tocolytic oxytocin receptor antagonists” (Wyeth, priority 2001, dated 2005)

Experiments:
[1] = biological target: T1, human oxytocin receptor (Homo sapiens, UniProt P30559); test: Oxytocin binding in CHO cell membranes expressing human oxytocin receptors ([3H]oxytocin radioligand); settings: for IC50: value in parentheses, read-out: OT (IC50); for inhibition at 0.1 µM / OT % inhibition @ 100 nM: 100 nM, value without parentheses; for inhibition at 0.1 µM: read-out: OT % inhibition @ 100 nM
T1 construct: host or cells: CHO cells, stably transfected (pcDNA3.1 vector); membranes
T1 sequence (P30559 1-389): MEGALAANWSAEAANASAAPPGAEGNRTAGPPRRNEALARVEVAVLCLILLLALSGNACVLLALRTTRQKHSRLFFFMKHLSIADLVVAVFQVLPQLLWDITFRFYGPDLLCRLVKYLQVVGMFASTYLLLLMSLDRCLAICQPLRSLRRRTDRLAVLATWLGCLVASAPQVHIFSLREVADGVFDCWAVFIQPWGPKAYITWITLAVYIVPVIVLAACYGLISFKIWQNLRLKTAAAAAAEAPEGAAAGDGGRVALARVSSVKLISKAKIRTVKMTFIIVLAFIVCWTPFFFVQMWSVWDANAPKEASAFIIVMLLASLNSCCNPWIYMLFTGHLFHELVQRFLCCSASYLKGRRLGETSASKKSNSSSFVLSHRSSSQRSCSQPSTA
Text: Oxytocin binding in Chinese Hamster Ovary cell membranes expressing human oxytocin receptors
Chinese Hamster Ovary (CHO) cells stably transfected with the human oxytocin (cf. T. Kimura et al., U.S. Pat. No. 5,466,584 (1995) to Rohto Pharmaceutical Co. Ltd., Osaka, Japan) were obtained from Dr. M. Thibonnier, Case Western Reserve University School of Medicine, Cleveland, Ohio.
A. Passaging and Amplification of Cells:
CHO cells transfected with the human oxytocin receptors obtained from M. Thibonnier (pcDNA3.1 vector) are allowed to grow to confluency (approx. >90%) in T-150 flasks under sterile conditions, in a cell culture medium of F-12 Nutrient Mixture (HAM) with L-glutamine (Gibco Cat. #11765-054) containing 15 mM HEPES (Gibco Cat. #15630-080), 1% antibiotic/antimycotic (add 5 mL 100×, Gibco Cat. #15240-062 per 500 mL F-12), 400 μg/mL of Geneticin (add 4 mL of 50 mg/mL per 500 mL F-12) and 10% Fetal Bovine Serum (Qualified, heat inactivated, Gibco Cat. #16140-063). The medium is removed by aspiration and the cells are washed with 10 mL of Hank's Balanced Salt solution (Gibco Cat. #14175-095). The salt solution is removed by aspiration and the cells trypsinized with 5 mL of trypsin-EDTA (0.05% trypsin, 0.53 mM EDTA-4Na, Gibco Cat. #25300-070) for 1 min The trypsin is removed by aspiration and the cells dislodged by tapping. Cell Culture medium (e.g. 30 mL for 1:30 split) is immediately added and mixed well to inactivate trypsin. 1 mL of detached cells is added to new culture flasks containing fresh Cell Culture medium (e.g. into 25 mL per T-150 flask), and mixed gently. The cells are incubated at 37° C. in 5% CO2. The medium is changed at 3 to 4 days interval (or as appropriate). The cells grow to confluency (approx. >75%-95%) within 7-8 days. All steps are done under sterile conditions.
The cells are washed twice gently with Hank's Balanced Salt solution (eg, use 10 mL per T-150 flask). The excess is removed and the cells bathed for 15-30 min. in an enzyme-free Cell Dissociation Buffer (eg, use 8 mL Hank's Based, Gibco Cat. #13150-016 per T-150 flask) until cells are loosened. The contents are transferred to centrifuge tubes (50 mL size) kept in ice bath. All subsequent steps are done at 4° C. The tubes are centrifuged at 300×g for 15 min (1380 rpm on SORVAL, Model RT6000D, using rotor for 50 mL tubes). The supernatant is discarded and the cells suspended in homogenizing buffer (10 mM Tris-HCl containing 0.25 M sucrose and 1 mM EDTA, pH 7.4) ensuring that the volume of the buffer is about ten times the volume of the cell pellet. The cells are pooled into a centrifuge tube (50 mL) and homogenized with Polytron at setting 6 for 10 sec. The homogenate is transferred into a Potter-Elvjehm homogenizer and homogenized with 3 strokes. The homogenate is centrifuged at 1500×g for 10 min at 4° C. (3100 rpm using SORVAL, model RT6000D, using rotor for 50 mL tubes). The pellet is discarded. The supernatant is centrifuged at 100,000×g for 60 min. at 4° C. (Beckman L8-80M ultracentrifuge; spin at 37,500 rpm with rotor type 70 Ti for 50 mL tubes; 38,000 rpm with type 80Ti for 15 mL tubes; or 35,800 rpm with rotor type 45Ti). The supernantant is discarded and the pellet suspended in 3 to 4 mL of Tris buffer (50 mM TRIS-HCl, pH 7.4). The protein content is estimated by the Bradford or Lowry method. The volume of the membrane suspension is adjusted with the membrane buffer (50 mM Tris-HCl containing 0.1% BSA and 0.1 mM PMSF) to give 3.0 mg/mL (or as appropriate) of protein. The membranes are aliquoted and stored at −70° C.
C. Radioligand Binding Assay:
In wells of a 96-well format microtiter plate, is added 90, 110 or 130 μL (to make up a final volume of 200 μL) of assay buffer containing 50 mM of Tris-HCl (pH 7.4), […], 1 mg % aprotinin, 1 mg % leupeptin, 2 mg % 1,10-phenanthroline, 10 mg % trypsin inhibitor, and 0.1 mM PMSF. The inhibitors are added on the day of the experiment. […]

IC50 [1] [nM]	inhibition at 0.1 µM [1] [%]	Structure (SMILES)	further results
0.98	–	COc1cc(C2=CCCCC2)c(Cl)cc1C(=O)N1Cc2ccc(C(=O)N(C)C[C@H](O)[C@@H](O)[C@H](O)[C@H](O)CO)n2Cc2ccccc21 [Example 1, 1-[[[10-[5-Chloro-4-(1-cyclohex-1-en-1-yl)-2-methoxybenzoyl]-10,11-dihydro-5H-pyrrolo[2,1-c][1,4]benzodiazepin-3-yl]carbonyl]methylamino]-1-deoxy-D-glucitol]	melting point: 72 to 73 °C
–	21	COc1cc(C2=CCCCC2)c(Cl)cc1C(=O)N1Cc2ccc(C(=O)O)n2Cc2ccccc21 [Example 1G, 10-(5-Chloro-4-cyclohex-1-en-1-yl-2-methoxybenzoyl)-10,11-dihydro-5H-pyrrolo[2,1-c][1,4]benzodiazepine-3-carboxylic acid]	–
19.6	–	COC[C@@H](OC)[C@@H](OC)[C@H](OC)[C@H](CN(C)C(=O)c1ccc2n1Cc1ccccc1N(C(=O)c1cc(Cl)c(C3=CCCCC3)cc1OC)C2)OC [Example 2, 10-(5-Chloro-4-cyclohex-1-en-1-yl-2-methoxybenzoyl)-N-methyl-N-[(2S,3R,4R,5R)-2,3,4,5,6-pentamethoxyhexyl]-10,11-dihydro-5H-pyrrolo[2,1-c][1,4]benzodiazepine-3-carboxamide]	–
4.92	–	COc1cc(C2=CCCCC2)c(Cl)cc1C(=O)N1Cc2ccc(C(=O)N(C)C[C@@H]3OC(=O)O[C@H]3[C@H](O)[C@H]3COC(=O)O3)n2Cc2ccccc21 [Example 3, 10-(5-Chloro-4-cyclohex-1-en-1-yl-2-methoxybenzoyl)-N-[((4S,5S)-5-{(R)-hydroxy[(4R)-2-oxo-1,3-dioxolan-4-yl]methyl}-2-oxo-1,3-dioxolan-4-yl)methyl]-N-methyl-10,11-dihydro-5H-pyrrolo[2,1-c][1,4]benzodiazepine-3-carboxamide]	melting point: 163 to 176 °C
–	–	Cc1cc(C(=O)N2Cc3ccc(C(=O)C(Cl)(Cl)Cl)n3Cc3ccccc32)ccc1C1=CCCCC1 [Example 5D, 2,2,2-Trichloro-1-[10-(4-cyclohex-1-en-1-yl-3-methyl-benzoyl)-10,11-dihydro-5H-pyrrolo[2,1-c][1,4]benzodiazepin-3-yl]-methanone]	OT % inhibition @ 100 nM [1]: 10%
–	26	Cc1cc(C(=O)N2Cc3ccc(C(=O)O)n3Cc3ccccc32)ccc1C1=CCCCC1 [Example 5E, 10-(4-Cyclohex-1-en-1-yl-3-methyl-benzoyl)-10,11-dihydro-5H-pyrrolo[2,1-c][1,4]benzodiazepine-3-carboxylic acid]	–
2.15	–	Cc1cc(C(=O)N2Cc3ccc(C(=O)N(C)C[C@H](O)[C@@H](O)[C@H](O)[C@H](O)CO)n3Cc3ccccc32)ccc1C1=CCCCC1 [Example 5]	–
–	23	CCOC(=O)[C@H](Cc1ccc(O)cc1)NC(=O)c1ccc2n1Cc1ccccc1N(C(=O)c1ccc(C3=CCCCC3)c(C)c1)C2 [Example 9, (2S)-2-{[10-(4-Cyclohex-1-en-1-yl-3-methyl-benzoyl)-10,11-dihydro-5H-pyrrolo[2,1-c][1,4]benzodiazepine-3-carbonyl]-amino}-3-(4-hydroxy-phenyl)-propionic acid ethyl ester]	–
–	–	Cc1cc(C(=O)N2Cc3ccc(C(=O)N[C@@H](Cc4ccc(O)cc4)C(=O)O)n3Cc3ccccc32)ccc1C1=CCCCC1 [Example 10]	OT % inhibition @ 100 nM [1]: 54%
76.2	–	COC(=O)[C@H](CO)NC(=O)c1ccc2n1Cc1ccccc1N(C(=O)c1ccc(C3=CCCCC3)c(C)c1)C2 [Example 11, (2S)-2-{[10-(4-Cyclohex-1-en-1-yl-3-methyl-benzoyl)-10,11-dihydro-5H-pyrrolo[2,1-c][1,4]benzodiazepine-3-carbonyl]-amino}-3-hydroxy-propionic acid methyl ester]	–
47.1	–	COC(=O)[C@@H](CO)NC(=O)c1ccc2n1Cc1ccccc1N(C(=O)c1ccc(C3=CCCCC3)c(C)c1)C2 [Example 12, (2R)-2-{[10-(4-Cyclohex-1-en-1-yl-3-methyl-benzoyl)-10,11-dihydro-5H-pyrrolo[2,1-c][1,4]benzodiazepine-3-carbonyl]-amino}-3-hydroxy-propionic acid methyl ester]	–
–	63	Cc1cc(C(=O)N2Cc3ccc(C(=O)N[C@@H](CO)C(=O)O)n3Cc3ccccc32)ccc1C1=CCCCC1 [Example 13, (2S)-2-{[10-(4-Cyclohex-1-en-1-yl-3-methyl-benzoyl)-10,11-dihydro-5H-pyrrolo[2,1-c][1,4]benzodiazepine-3-carbonyl]-amino}-3-hydroxy-propionic acid]	–
–	50	Cc1cc(C(=O)N2Cc3ccc(C(=O)N[C@H](CO)C(=O)O)n3Cc3ccccc32)ccc1C1=CCCCC1 [Example 14, (2R)-2-{[10-(4-Cyclohex-1-en-1-yl-3-methyl-benzoyl)-10,11-dihydro-5H-pyrrolo[2,1-c][1,4]benzodiazepine-3-carbonyl]-amino}-3-hydroxy-propionic acid]	–
–	19	Cc1cc(C(=O)N2Cc3ccc(C(=O)O)n3Cc3ccccc32)ccc1C1=CCCc2ccccc21 [Example 15B, 10-[4-(3,4-Dihydro-naphthalen-1-yl)-3-methyl-benzoyl]-10,11-dihydro-5H-pyrrolo[2,1-c][1,4]benzodiazepine-3-carboxylic acid]	–
3.19	–	Cc1cc(C(=O)N2Cc3ccc(C(=O)N(C)C[C@H](O)[C@@H](O)[C@H](O)[C@H](O)CO)n3Cc3ccccc32)ccc1C1=CCCc2ccccc21 [Example 15]	–
–	–	Cc1cc(C(=O)N2Cc3ccc(C(=O)N(CCO)CCO)n3Cc3ccccc32)ccc1C1=CCCc2ccccc21 [Example 16, {10-[4-(3,4-Dihydro-naphthalen-1-yl)-3-methyl-benzoyl]-10,11-dihydro-5H-pyrrolo[2,1-c][1,4]benzodiazepin-3-yl}-3-carboxylic acid bis-(2-hydroxy-ethyl)-amide]	OT % inhibition @ 100 nM [1]: 98%
–	–	Cc1cc(C(=O)N2Cc3ccc(C(=O)N4CCN(CCO)CC4)n3Cc3ccccc32)ccc1C1=CCCCC1 [Example 17, {10-[4-(1-Cyclohex-1-en-1-yl)-3-methylbenzoyl]-10,11-dihydro-5H-pyrrolo[2,1-c][1,4]benzodiazepin-3-yl}[4-(2-hydroxyethyl)-1-piperazinyl]methanone]	OT % inhibition @ 100 nM [1]: 88%
